Results reported in patent publication EP3965790B1, “PENTACYCLIC TRITERPENES IN THE TREATMENT OF VITILIGO” (Pierre Fabre Dermo-Cosmétique, priority 2019, dated 2020).

How the values were obtained:
[1] = test system: CXCL16; assay: RT-qPCR gene expression in cytokine-stimulated keratinocytes; type: cell-based, humains; settings: 24 h
[2] = test system: MMP-9; assay: as above; type: cell-based, humains; settings: 24 h
[3] = ORAC (Oxygen Radical Antioxydant Capacity) antioxidant test in tubo; settings: for Indice ORAC / 100g triterpènes (x 1000): Trolox standard, AAPH, fluorescéine
Description: Le stress oxydatif fait partie des causes possibles de l'apparition du vitiligo. Cette expérience a pour objectif de mesurer l'activité antioxydante de chaque triterpène pentacyclique et des deux extraits, en comparaison avec un témoin positif bien connu, la vitamine C. La méthode in tubo utilisée est celle d'évaluation ORAC (Oxygen Radical Antioxydant Capacity) adaptée de celle décrite par Davalos et al. (J Agric Food Chem 52(1):48-54, 2004). L'indice ORAC permet d'évaluer la capacité anti-oxydante de chaque composé testé dans l'exemple 2. Ce test permet d'évaluer et de classer les différents composés testés suivant leur pouvoir anti-oxydant vis-à-vis des radicaux libres péroxyl. Le AAPH (2,2'-azobis-2-méthyl-propanimidamide, dihydrochloride) est à l'origine de radicaux libres péroxyl. Ce test est utilisé pour mimer la cinétique de dégradation de la fluorescéine par les radicaux libres. Ceci se traduit par une diminution de fluorescence en fonction du temps et de la concentration en actif anti-oxydant présent dans l'extrait testé. L'acide 3,4-dihydro-6-hydroxy-2,5,7,8-tétraméthyl-2H-1-benzopyran-2-carboxylique ou Trolox est utilisé comme standard, il s'agit d'un analogue hydrophile de la vitamine E (anti-oxydant connu). L'ajout de Trolox (gamme de référence) ou d'extrait ou triterpène pentacyclique, protège la fluorescéine de la dégradation. Ceci permet d'évaluer une activité antioxydante mesurée par rapport à une gamme de Trolox.
Toutes les solutions sont réalisées dans du tampon phosphate 75 mM, pH à 7,6. La fluorescéine est à 1,17 µM (solution mère […]). AAPH à 125 mM est préparé extemporanément, Trolox à 1 mM. Dans une plaque de 96 puits noir, il est déposé 20 µl d'antioxydant (gamme Trolox ou composé à tester), 160 µl de fluorescéine à 1,17 µM. la plaque est recouverte d'un film, puis est incubée pendant 15 minutes à 37°C. la solution de AAPH est ajoutée manuellement et le plus rapidement possible à raison de 20 µl par puits. La plaque est alors incubée immédiatement à 37°C dans un spectrofluorimètre (SpectraMax). Une lecture est enregistrée toutes les minutes pendant 90 minutes. La longueur d'onde d'excitation est de 485 nm et la longueur d'onde d'émission est de 520 nm. Chaque essai est réalisé en triplicata.
Les aires sous la courbe (AUC) pour chacun des essais sont calculées. Les AUC nets sont déterminées de la façon suivante : AUC net = AUC point de gamme ou échantillon−AUC blanc. [formula]
La droite d'étalonnage est établie, la concentration en Trolox (µM) en fonction de l'AUC net. L'équation de la droite est utilisée pour déterminer un équivalent en Trolox (µM) pour chacun des échantillons dosés.
Eq Trolox en µM = a x (AUC net)2 + b x (AUC net), a et b sont déterminés par l'équation de la droite.
Pour être dosés, les échantillons sont dilués, de sorte que les valeurs mesurées soient comprises dans la gamme étalon utilisée pour le dosage. L'acide ascorbique (vitamine C) est utilisé comme référence.
L'indice ORAC correspond à des […] de Trolox / 100g de matières.
Les résultats ci-dessous ont été calculés pour 100g d'extrait en Triterpènes, Tingénine A, Tingénine B et célastrol, soit le calcul : [formula]

[4] = test system: IL-8; assay: RT-qPCR gene expression in cytokine-stimulated keratinocytes; type: cell-based, humains; settings: 24 h
[5] = test system: CCL5; assay: as above; type: cell-based, humains; settings: 24 h
[6] = test system: MMP-9; assay: ELISA of MMP-9 release by cytokine-stimulated keratinocytes; type: cell-based, humains; settings: for Libération de MMP-9 (pg/ml) ± sem: stimulated keratinocytes, 48 h, supernatant; for effet sur la libération de MMP-9 (in words): concentrations as in Tableau 5 (JAK 10 µM; TA, TB 500 ng/ml; Célastrol 100 ng/ml; extrait 1 200 ng/ml; extrait 2 150 ng/ml)
[7] = test system: CXCL10; assay: RT-qPCR gene expression in cytokine-stimulated keratinocytes; type: cell-based, humains; settings: 24 h
[8] = test system: CCL20; assay: as above; type: cell-based, humains; settings: 24 h
[9] = test system: S100A7; assay: as above; type: cell-based, humains; settings: 24 h
[10] = test system: IL-8; assay: ELISA of IL-8 release by cytokine-stimulated keratinocytes; type: cell-based, humains; settings: concentrations as in Tableau 5 (JAK 10 µM; TA, TB 500 ng/ml; Célastrol 100 ng/ml; extrait 1 200 ng/ml; extrait 2 150 ng/ml)
[11] = test system: CXCL11; assay: RT-qPCR gene expression in cytokine-stimulated keratinocytes; type: cell-based, humains; settings: 24 h
[12] = test system: DEFB4A; assay: as above; type: cell-based, humains; settings: 24 h
[13] = test system: IL-23A; assay: as above; type: cell-based, humains; settings: 24 h
[14] = 45 ng/ml, stimulated keratinocytes
[15] = 135 ng/ml, stimulated keratinocytes
[16] = 405 ng/ml, stimulated keratinocytes
[17] = 10µM, stimulated keratinocytes (IL-17, Oncostatin M, TNFα 3ng/ml)

For `CC1=C(O)C(=O)C=C2C1=CC=C1[C@@]2(C)CC[C@@]2(C)C3C[C@@H](C)C(=O)C[C@]3(C)CC[C@]12C` (stereo partly shown) [Tingénine A], the “% Stimulation / Gènes témoins, CXCL16” value [1, 14] was 116%, the “% Stimulation / Gènes témoins, CXCL16” value [1, 15] was 93% and the “% Stimulation / Gènes témoins, CXCL16” value [1, 16] was 50%. For the same compound, the “% Stimulation / Gènes témoins, MMP-9” value [2, 14] was 98%, the “% Stimulation / Gènes témoins, MMP-9” value [2, 15] was 93% and the “% Stimulation / Gènes témoins, MMP-9” value [2, 16] was 34%. The “Indice ORAC / 100g triterpènes (x 1000)” value ([3]; 0,75 µg/ml) was 33 960 / 100g triterpènes (x 1000), the “pouvoir anti-oxydant compared with vitamine C (in words)” value ([3]; comparison of ORAC indices of Tableau 6) was “inférieur” and the “% Stimulation / Gènes témoins, IL-8” value [4, 14] was 113%. The “% Stimulation / Gènes témoins, IL-8” value [4, 15] was 125%, the “% Stimulation / Gènes témoins, IL-8” value [4, 16] was 53% and the “% Stimulation / Gènes témoins, CCL5” value [5, 14] was 92%. For the same compound, the “% Stimulation / Gènes témoins, CCL5” value [5, 15] was 64%, the “% Stimulation / Gènes témoins, CCL5” value [5, 16] was 19% and the “Libération de MMP-9 (pg/ml) ± sem” value ([6]; 500 ng/ml) was 787 ± 105 pg/mL. For the same compound, the “effet sur la libération de MMP-9 (in words)” value [6] was “effet inhibiteur”, the “% Stimulation / Gènes témoins, CXCL10” value [7, 14] was 108% and the “% Stimulation / Gènes témoins, CXCL10” value [7, 15] was 80%. For the same compound, the “% Stimulation / Gènes témoins, CXCL10” value [7, 16] was 31%, the “% Stimulation / Gènes témoins, CCL20” value [8, 14] was 112% and the “% Stimulation / Gènes témoins, CCL20” value [8, 15] was 124%. For the same compound, the “% Stimulation / Gènes témoins, CCL20” value [8, 16] was 80%, the “% Stimulation / Gènes témoins, S100A7” value [9, 14] was 91% and the “% Stimulation / Gènes témoins, S100A7” value [9, 15] was 91%. For the same compound, the “% Stimulation / Gènes témoins, S100A7” value [9, 16] was 70%, the “effet sur la libération d'IL-8 (in words)” value [10] was “effet inhibiteur” and the “% Stimulation / Gènes témoins, CXCL11” value [11, 14] was 107%. For the same compound, the “% Stimulation / Gènes témoins, CXCL11” value [11, 15] was 85%, the “% Stimulation / Gènes témoins, CXCL11” value [11, 16] was 23% and the “% Stimulation / Gènes témoins, DEFB4A” value [12, 14] was 81%. For the same compound, the “% Stimulation / Gènes témoins, DEFB4A” value [12, 15] was 63%, the “% Stimulation / Gènes témoins, DEFB4A” value [12, 16] was 22% and the “% Stimulation / Gènes témoins, IL-23A” value [13, 14] was 123%. The “% Stimulation / Gènes témoins, IL-23A” value [13, 15] was 102% and the “% Stimulation / Gènes témoins, IL-23A” value [13, 16] was 55%.
For `O=C1O[C@H]([C@@H](O)CO)C(O)=C1O` [Vitamine C, acide ascorbique, reference compound], the “Indice ORAC / 100g triterpènes (x 1000)” value ([3]; 3 µg/ml) was 69 813 / 100g triterpènes (x 1000).
In the case of `CC(C)(C)c1nc2c3cc[nH]c(=O)c3c3cc(F)ccc3c2[nH]1` [Inhibiteur JAK, reference compound], the “% Stimulation / Gènes témoins, CXCL16” value [1, 17] is reported as 76%, the “% Stimulation / Gènes témoins, MMP-9” value [2, 17] is reported as 40% and the “% Stimulation / Gènes témoins, IL-8” value [4, 17] is reported as 18%. For the same compound, the “% Stimulation / Gènes témoins, CCL5” value [5, 17] was 16%, the “Libération de MMP-9 (pg/ml) ± sem” value ([6]; 10 µM) was 389 ± 18 pg/mL and the “effet sur la libération de MMP-9 (in words)” value [6] was “inhibe fortement et statistiquement”. For the same compound, the “% Stimulation / Gènes témoins, CXCL10” value [7, 17] was 38%, the “% Stimulation / Gènes témoins, CCL20” value [8, 17] was 292% and the “% Stimulation / Gènes témoins, S100A7” value [9, 17] was 25%. For the same compound, the “effet sur la libération d'IL-8 (in words)” value [10] was “inhibe fortement et statistiquement”, the “% Stimulation / Gènes témoins, CXCL11” value [11, 17] was 14% and the “% Stimulation / Gènes témoins, DEFB4A” value [12, 17] was 7%. The “% Stimulation / Gènes témoins, IL-23A” value [13, 17] was 67%.
